The assay concerns COV362 cells. The assay is described as follows: CTG growth inhibition, drug A/drug B cross-combination, 6 days. The note with it: Drug B alone, 4.12-1000.00 nM. In kind it is cell-based, human. As for the experimental part:
Tumor cells in good growth condition were seeded into 96-well plates. After overnight growth onto the wall, different concentrations of the test substances were administered, with different concentrations of the two test substances arranged in a cross-combination design.
The starting concentration of test drug A was 1000 nM, which was subjected to 1:3 serial dilution to generate a total of 6 concentration levels; the starting concentration of test drug B was set at 1000 nM, which was subjected to 1:3 serial dilution to generate a total of 6 concentration levels. After the combined test substances had acted on each cell line for 6 days, the CTG method was used to detect the in vitro proliferation inhibitory effect of the combined use of the test drugs on tumor cells. Table 2-1 Drug A and drug B treatment dosing scheme
Based on the signal values measured by the microplate reader, the cell growth inhibition rate was calculated according to the following formula: Growth inhibition rate % (growth inhibition%) = [1-(measured value-minimum value mean-background value)/(maximum value mean-background value-minimum value mean)] ×100% (measured value: reading value of compound wells; minimum value: reading value of ZPE wells (reading value of wells containing cell culture medium without cells); maximum value: reading value of HPE wells (cell reading value of the DMSO treatment group); background value: cell background measured value before addition of the compound).

The structures appear in SMILES notation.

Consider `CCc1cc2ncc(CN3CC=C(c4ccc(C(=O)NC)nc4)CC3)cc2[nH]c1=O` [Drug B, 1'-((7-ethyl-6-oxo-5,6-dihydro-1,5-naphthyridin-3-yl)methyl)-N-methyl-1',2',3',6'-tetrahydro-[3,4'-bipyridine]-6-carboxamide], for which the Growth inhibition rate reads like this: (drug B 4.12 nM) 22.59%; (drug B 12.35 nM) 22.45%; (drug B 37.04 nM) 21.18%; (drug B 111.11 nM) 25.95%; (drug B 333.33 nM) 23.74%.

For the origin of these results see EP4810065A1, “COMBINED USE OF ANTIBODY-DRUG CONJUGATE AND POLY(ADENOSINE D[…]) POLYMERASE INHIBITOR” (Jiangsu Hansoh Pharmaceutical Group Co., Ltd., priority 2023, dated 2025).
